For assay [1], the system named is NCI-H358 cells (K-Ras G12C). As to the kind of experiment: Potency assay: pERK in NCI-H358 cells. The class given is cell-based, human. To be noted: Homo sapiens, NCI-H358; H358 KRAS G12C; read-out: pERK EC50. Summed up: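 pERK decrease read by AlphaLISA SureFire p-ERK1/2 or In-Cell Western after 4 h compound exposure at 37 °C, 5% CO2.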
In assay [2] the target is K-Ras G13C (Homo sapiens (Human), UniProt P01116+P62937, G13C). In words: Ras-Raf (BRAF RBD) disruption / FRET / MOA assay, KRAS G13C. It is filed as biochemical. To be noted: KRAS G13C; Ras-Raf disruption/FRET/MOA assay; read-out: IC50* KRAS G13C FRET data. Summed up:
(§1)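 Compounds, top final concentration 30 μM in 10-point 3-fold series, incubated 3 hours at 25° C with nucleotide-loaded Ras, cyclophilin A and BRAF RBD.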

Assay [3] deals with KRAS G12V (Homo sapiens (Human), UniProt P01116+P62937, G12V). As to the kind of experiment: Ras-Raf (BRAF RBD) disruption / FRET / MOA assay, KRAS G12V. The class given is biochemical. The conditions noted are these: read-out: IC50* KRAS G12V FRET data. Summed up: as §1
Sequence of KRAS G12V (P01116-2 other isoform, or with tags, fused parts or gaps G12V): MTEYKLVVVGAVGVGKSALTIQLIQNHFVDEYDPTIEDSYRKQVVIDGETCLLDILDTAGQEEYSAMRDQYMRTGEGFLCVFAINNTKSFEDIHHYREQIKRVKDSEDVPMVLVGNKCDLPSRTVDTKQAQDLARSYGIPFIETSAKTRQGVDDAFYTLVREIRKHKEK
Sequence of KRAS G12V (P62937 whole entry): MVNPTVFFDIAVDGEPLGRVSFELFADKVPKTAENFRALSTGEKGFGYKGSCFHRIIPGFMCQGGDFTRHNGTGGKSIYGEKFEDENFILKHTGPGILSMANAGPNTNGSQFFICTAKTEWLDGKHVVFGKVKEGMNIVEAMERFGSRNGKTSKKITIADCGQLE
Assay [4] deals with NRAS G12C (Homo sapiens (Human), UniProt P01111+P62937, G12C). As to the kind of experiment: Ras-Raf (BRAF RBD) disruption / FRET / MOA assay, NRAS G12C. The class given is biochemical. To be noted: read-out: IC50* NRAS G12C FRET data. Summed up: as §1
Sequence of NRAS G12C (P01111 whole entry G12C): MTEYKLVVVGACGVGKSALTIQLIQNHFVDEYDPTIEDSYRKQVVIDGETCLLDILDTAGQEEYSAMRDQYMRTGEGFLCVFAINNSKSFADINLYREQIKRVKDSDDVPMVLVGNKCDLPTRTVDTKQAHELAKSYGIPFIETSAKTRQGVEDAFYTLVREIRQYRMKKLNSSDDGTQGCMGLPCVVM
Sequence of NRAS G12C (P62937 whole entry): as the sequence (P62937 whole entry) above
For assay [5], the target named is NRAS WT (Homo sapiens (Human), UniProt P01111+P62937). As to the kind of experiment: Ras-Raf (BRAF RBD) disruption / FRET / MOA assay, NRAS WT. It is filed as biochemical. The conditions noted are these: read-out: IC50* NRAS WT FRET data. Summed up:
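TR-FRET disruption of nucleotide-loaded Ras binding to BRAF RBD via compound-driven ternary complex with cyclophilin A. Compound as 10-point 3-fold series from 30 μM final, 3 h at 25° C, then anti-His Eu-W1024 (10 nM) and anti-GST allophycocyanin (50 nM) for 1.5 h. IC50 from decreased FRET ratio versus DMSO.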

The source of these data is patent US11566007B2, “Ras inhibitors” (Revolution Medicines, Inc., priority 2019, dated 2023).

Structures are written as SMILES. Where “and” joins values, the source holds several entries; their conditions need not be identical. Identical values can stand only once.

Sequence of NRAS WT (P01111 whole entry): as the sequence (P01111 whole entry G12C) above, with C12G counted along it
Sequence of NRAS WT (P62937 whole entry): as the sequence (P62937 whole entry) above
Sequence of K-Ras G13C (P01116-2 other isoform, or with tags, fused parts or gaps G13C): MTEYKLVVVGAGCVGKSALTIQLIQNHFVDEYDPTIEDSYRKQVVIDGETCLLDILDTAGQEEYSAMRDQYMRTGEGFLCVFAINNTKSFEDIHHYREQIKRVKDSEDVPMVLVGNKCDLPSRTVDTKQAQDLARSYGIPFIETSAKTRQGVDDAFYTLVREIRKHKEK
Sequence of K-Ras G13C (P62937 whole entry): as the sequence (P62937 whole entry) above

As for `C=CC(=O)N1C[C@@H](C)N(C(=O)N(C)[C@H](C(=O)N[C@H]2Cc3nc(cs3)-c3ccc4c(c3)c(c(-c3cccnc3[C@H](C)OC)n4CC)CC(C)(C)COC(=O)[C@@H]3CCCN(N3)C2=O)C(C)C)[C@@H](C)C1` (atropisomer, axis not shown) [Example A387], the EC50 in assay [1] was below 5 µM. Also, the IC50 was 0.1 to 1 µM in assay [2], 0.1 to 1 µM in assay [3], 0.01 to 0.1 µM in assay [4] and 0.01 to 0.1 µM in assay [5].
In the case of `C=CC(=O)N1CCOC2(CCN(C(=O)N(C)[C@H](C(=O)N[C@H]3Cc4cc(CF)cc(c4)-c4ccc5c(c4)c(c(-c4cccnc4[C@H](C)OC)n5CC(F)(F)F)CC(C)(C)COC(=O)[C@@H]4CCCN(N4)C3=O)C(C)C)CC2)C1` (atropisomer, axis not shown) [Example A605], in assay [1], the EC50 was below 5 µM. Besides, the IC50 lay within 0.01 to 0.1 µM in assay [2], 0.1 to 1 µM in assay [3], 0.1 to 1 µM in assay [4] and 0.01 to 0.1 µM in assay [5].
Consider `CCn1c(-c2cccnc2[C@H](C)OC)c2c3cc(ccc31)-c1csc(n1)C[C@H](NC(=O)[C@H](C(C)C)N(C)C(=O)N1CCN(C(=O)/C=C/CN(C)C)C3(CC3)C1)C(=O)N1CCC[C@H](N1)C(=O)OCC(C)(C)C2` (atropisomer, axis not shown) [Example A701], for which the EC50 in assay [1] is below 5 µM. Also, the IC50 lay within 0.1 to 1 µM in assay [2], 0.1 to 1 µM in assay [3], 0.01 to 0.1 µM in assay [4] and 0.1 to 1 µM in assay [5].
In the case of `CCn1c(-c2cccnc2[C@H](C)OC)c2c3cc(ccc31)-c1csc(n1)C[C@H](NC(=O)[C@H](C(C)C)N(C)C(=O)N1CCC3(CC1)CN(C(=O)/C=C/CN(C)C)C3)C(=O)N1CCC[C@H](N1)C(=O)OCC(C)(C)C2` (atropisomer, axis not shown) [Example A650], the EC50 in assay [1] is below 5 µM. Besides, the IC50 is 0.01 to 0.1 µM in assay [2], 0.1 to 1 µM in assay [3], 0.01 to 0.1 µM in assay [4] and 0.1 to 1 µM in assay [5].
`C=CC(=O)N1CCC2(CC1)CN(C(=O)N(C)[C@H](C(=O)N[C@H]1Cc3nc(cs3)-c3ccc4c(c3)c(c(-c3cccnc3[C@H](C)OC)n4CC)CC(C)(C)COC(=O)[C@@H]3CCCN(N3)C1=O)C(C)C)C2` (atropisomer, axis not shown) [Example A702]: the EC50 in assay [1] was below 5 µM. For the same compound, the IC50 in assay [2], in assay [3], in assay [4] and in assay [5] was 0.1 to 1 µM each time.
Take `C=CC(=O)N1CC(N2CCN(C(=O)N(C)[C@H](C(=O)N[C@H]3Cc4nc(cs4)-c4ccc5c(c4)c(c(-c4cccnc4[C@H](C)OC)n5CC)CC(C)(C)COC(=O)[C@@H]4CCCN(N4)C3=O)C(C)C)CC2)C1` (atropisomer, axis not shown) [Example A668]: the EC50 in assay [1] was below 5 µM. In addition, the IC50 lay within 0.01 to 0.1 µM in assay [2], 0.1 to 1 µM in assay [3], 0.01 to 0.1 µM in assay [4] and 0.1 to 1 µM in assay [5].
On to `C=CC(=O)N1CC[C@H](C(=O)N(C)[C@H](C(=O)N[C@H]2Cc3cc(O)cc(c3)-c3ccc4c(c3)c(c(-c3cc(C)ccc3[C@H](C)OC)n4CC)CC(C)(C)COC(=O)[C@@H]3CCCN(N3)C2=O)C(C)C)C1` (atropisomer, axis not shown) [Example A167], for which the EC50 in assay [1] is below 5 µM. Further, the half-inhibitory concentration (IC50) in assay [2] was 0.01 to 0.1 µM and 1 to 10 µM; in assay [3], 1 to 10 µM and 0.01 to 0.1 µM; in assay [4], 0.1 to 1 µM and < 0.01 µM; in assay [5], 0.01 to 0.1 µM.
As for `CCn1c(-c2cccnc2[C@H](C)OC)c2c3cc(ccc31)-c1csc(n1)C[C@H](NC(=O)CN1CC[C@@]3(CCN(C(=O)C#CC(C)(C)N4CCC4)C3)C1)C(=O)N1CCC[C@H](N1)C(=O)OCC(C)(C)C2` (atropisomer, axis not shown) [Example A364], in assay [1], the EC50 was below 5 µM. Moreover, the IC50 in assay [2] was 1 to 10 µM; in assay [3], 1 to 10 µM; in assay [4], 0.1 to 1 µM; in assay [5] it was 1 to 10 µM.
As for `C=CC(=O)N1CCC2(CCN(C(=O)N(C)[C@H](C(=O)N[C@H]3Cc4nc(cs4)-c4ccc5c(c4)c(c(-c4cccnc4[C@H](C)OC)n5CC)CC(C)(C)COC(=O)[C@@H]4CCCN(N4)C3=O)C(C)C)CC2)C1` (atropisomer, axis not shown) [Example A698], the EC50 in assay [1] was below 5 µM. Moreover, the IC50 fell in the range of 0.01 to 0.1 µM in assay [2], 0.1 to 1 µM in assay [3], 0.01 to 0.1 µM in assay [4] and 0.1 to 1 µM in assay [5].
With `C=CC(=O)N1C[C@H](C)N(C(=O)N(C)[C@H](C(=O)N[C@H]2Cc3nc(cs3)-c3ccc4c(c3)c(c(-c3cccnc3[C@H](C)OC)n4CC)CC(C)(C)COC(=O)[C@@H]3CCCN(N3)C2=O)C(C)C)CC12CC2` (atropisomer, axis not shown) [Example A586], the EC50 in assay [1] was below 5 µM. Further, the IC50 in assay [2], in assay [3], in assay [4] and in assay [5] was 0.1 to 1 µM throughout.
On to `C=CS(=O)(=O)N1CC[C@H](C(=O)N(C)[C@H](C(=O)N[C@H]2Cc3cc(O)cc(c3)-c3ccc4c(c3)c(c(-c3cncnc3)n4CC)CC(C)(C)COC(=O)[C@@H]3CCCN(N3)C2=O)C(C)C)C1` [Example A172], for which the EC50 in assay [1] was below 5 µM. Further, the IC50 in assay [2] is 0.01 to 0.1 µM; in assay [3], 1 to 10 µM; in assay [4] it was 0.01 to 0.1 µM; in assay [5] it was 1 to 10 µM.
Take `CCn1c(-c2cccnc2[C@H](C)OC)c2c3cc(ccc31)-c1cccc(c1)C[C@H](NC(=O)[C@@H](COC1CN(C(=O)C#C[C@H]3COCCN3C)C1)C(C)C)C(=O)N1CCC[C@H](N1)C(=O)OCC(C)(C)C2` (atropisomer, axis not shown) [Example A644]: in assay [1], the EC50 is below 5 µM. Further, the IC50 in assay [2] was 1 to 10 µM; in assay [3], above 10 µM; in assay [4], 0.01 to 0.1 µM; in assay [5], above 10 µM.
Regarding `C=CC(=O)N1CCN(C(=O)N(C)[C@H](C(=O)N[C@H]2Cc3nc(cs3)-c3ccc4c(c3)c(c(-c3cccnc3[C@H](C)OC)n4CC)CC(C)(C)COC(=O)[C@@H]3CCCN(N3)C2=O)C(C)C)[C@@H]2CC[C@@H]21` (atropisomer, axis not shown) [Example A718], the EC50 in assay [1] was below 5 µM. Also, the IC50 is 0.01 to 0.1 µM in assay [2], 0.1 to 1 µM in assay [3], 0.1 to 1 µM in assay [4] and 0.1 to 1 µM in assay [5].
Turning to `C=CC(=O)N1CC[C@H](C(=O)N(C)[C@H](C(=O)N[C@H]2Cc3cccc(c3)-c3ccc4c(c3)c(c(-c3cccnc3[C@H](C)OC)n4CC#CC)CC(C)(C)COC(=O)[C@@H]3CCCN(N3)C2=O)C(C)C)C1` (atropisomer, axis not shown) [Example A531], the EC50 in assay [1] is below 5 µM. The IC50 in assay [2] was 1 to 10 µM; in assay [3], 1 to 10 µM; in assay [4] it was 0.1 to 1 µM; in assay [5], 1 to 10 µM.
As to `C=CC(=O)N1CCOC2(C1)CN(C(=O)N(C)[C@H](C(=O)N[C@H]1Cc3nc(cs3)-c3ccc4c(c3)c(c(-c3cccnc3[C@H](C)OC)n4CC(F)(F)F)CC(C)(C)COC(=O)[C@@H]3CCCN(N3)C1=O)C(C)C)C2` (atropisomer, axis not shown) [Example A604], in assay [1], the EC50 is below 5 µM. In addition, the IC50 lay within 0.01 to 0.1 µM in assay [2], 0.1 to 1 µM in assay [3], 0.1 to 1 µM in assay [4] and 0.1 to 1 µM in assay [5].
Turning to `CCn1c(-c2cccnc2[C@H](C)OC)c2c3cc(ccc31)-c1cccc(c1)C[C@H](NC(=O)[C@H](C(C)C)N1CC[C@@]3(CCN(C(=O)C#C[C@H]4COCCN4C4COC4)C3)C1=O)C(=O)N1CCC[C@H](N1)C(=O)OCC(C)(C)C2` (atropisomer, axis not shown) [Example A567], the EC50 in assay [1] is below 5 µM. Moreover, the IC50 in assay [2] is 0.1 to 1 µM; in assay [3] it was 1 to 10 µM; in assay [4] it was 0.01 to 0.1 µM; in assay [5], 1 to 10 µM.
With `CCn1c(-c2cccnc2[C@H](C)OC)c2c3cc(ccc31)-c1cnc(o1)C[C@H](NC(=O)[C@@H](COC1CN(C(=O)C#CC(C)(C)N(C)C)C1)C(C)C)C(=O)N1CCC[C@H](N1)C(=O)OCC(C)(C)C2` (atropisomer, axis not shown) [Example A649], in assay [1], the half-maximal effective concentration (EC50) was below 5 µM. The half-maximal inhibitory concentration (IC50) in assay [2] is above 10 µM; in assay [3], above 10 µM; in assay [4] it was 0.01 to 0.1 µM; in assay [5], above 10 µM.
For `C=CC(=O)N1CC[C@H](C(=O)N(C)[C@H](C(=O)N[C@H]2Cc3cc(O)cc(c3)-c3ccc4c(c3)c(c(-c3cn(C)cn3)n4CC)CC(C)(C)COC(=O)[C@@H]3CCCN(N3)C2=O)C(C)C)C1` [Example A113], in assay [1], the EC50 is below 5 µM. The IC50 in assay [2] is above 10 µM; in assay [3], 1 to 10 µM; in assay [4], 0.1 to 1 µM; in assay [5] it was above 10 µM.

The term EC50 denotes the concentration at which the effect is half-maximal. The term IC50 denotes the midpoint of a concentration-inhibition curve.
